Patent US11401271B2, “Fused heterocyclic compound, pyrazole-ring-containing fused heterocyclic compound, agricultural composition containing thereof, and method of using the composition” (SOUTH CHINA AGRICULTURAL UNIVERSITY, priority 2017, dated 2022)
Like-named read-outs stand apart in the source and are kept apart here.

What was measured:
Test in all cases: whole plant or invertebrate
Type in all cases: in vivo
Plutella xylostella = conditions: for mortality at 500 ppm: Plutella xylostella, read-out: Plutella xylostella Mortality (%) 500 ppm; for Plutella xylostella Mortality (%) 500 ppm: 2nd-instar larvae, leaf immersion feeding
Description: (1) Insecticidal Activity on 2nd-Instar Larvae of Plutella xylostella.
Plutella xylostella (L.) is a lepidoptera pest with a chewing mouthpart and is a common vegetable pest. The 2nd-instar larvae of Plutella xylostella were used as test objects and tested by using a leaf immersion feeding method.
(§1) Operation process: Samples were weighed accurately, and respectively added with 200 μL of dimethyl sulfoxide to prepare 10 g/L mother liquor which was diluted into a concentration of 500 ppm with an aqueous solution containing 0.05% of Tween-80 during the test. A hole puncher with a diameter of 1.0 cm was used to make cleaned cabbage leaves into leaf discs. The leaf discs were immersed in a liquid medicine, taken out after 5 seconds, air-dried naturally, and transferred into a clean vessel. About 35 2nd-instar larvae of Plutella xylostella were put into the vessel and fed at a constant temperature of 28° C. Each concentration was repeated 3 times, and an aqueous solution containing 0.05% of Tween-80 was used as a control group. After being treated for 24 hours, a number of dead Plutella xylostella was counted, and a mortality (%) was calculated according to a formula that mortality (%)=(number of live larvae in the control group−number of treated live larvae)/number of live larvae in the control group*100%.

Spodoptera exigua = conditions: for mortality at 500 ppm: Spodoptera exigua, 24 h, read-out: Spodoptera exigua Mortality (%) 500 ppm; for Spodoptera exigua Mortality (%) 500 ppm: 2nd-instar larvae, leaf immersion feeding, 24 hours
Description: (2) Insecticidal Activity on 2nd-Instar Larvae of Spodoptera exigua.
Spodoptera exigua is a lepidoptera pest with a chewing mouthpart and is a common vegetable pest. The 2nd-instar larvae of Spodoptera exigua were used as test objects and tested by using a leaf immersion feeding method.
as §1, with “μL,” for “μL”, “2nd -instar” for “2nd-instar”, “Spodoptera exigua” for “Plutella xylostella”, “group −number” for “group−number”, “group * 100%.” for “group*100%.”

Aphis craccivora = conditions: for mortality at 500 ppm: Aphis craccivora, 24 h, read-out: Aphis craccivora Mortality (%) 500 ppm; for Aphis craccivora Mortality (%) 500 ppm: wingless adults, impregnation method, 24 hours
Description: (3) Insecticidal Activity on Aphid Adults.
Aphid is a homoptera pest with a piercing-sucking mouthpart and is a common vegetable pest. Aphis craccivora were taken as test objects and tested by using an impregnation method.
Operation process: Samples were weighed accurately, and respectively added with 200 μL of dimethyl sulfoxide to prepare 10 g/L mother liquor which was diluted into a concentration of 500 ppm with an aqueous solution containing 0.05% of Tween-80 during the test. After the wingless Aphis craccivora adults stably sucked on bean sprouts, the wingless Aphis craccivora adults together with the bean sprouts were immersed into a liquid medicine with a concentration of 500 ppm, taken out after 5 seconds, air-dried naturally, transferred into a clean vessel, and fed at a constant temperature of 23° C. Each concentration was repeated 3 times, and an aqueous solution containing 0.05% of Tween-80 was used as a control group. After being treated for 24 hours, a number of dead Aphis craccivora was counted, and a mortality (%) was calculated according to a formula that mortality (%)=(number of live Aphis craccivora in the control group−number of treated live Aphis craccivora)/number of live Aphis craccivora in the control group*100%.

Solenopsis invicta = conditions: water test tube poison-feeding; for mortality at 100 ppm: Solenopsis invicta
Description: (4) Insecticidal Activity on Solenopsis invicta.
As a hymenoptera pests and a social insect, Solenopsis invicta is one of the most destructive invasive organisms. Solenopsis invicta were used as test objects and tested by using a water test tube poison-feeding method.
Operation process: Samples were weighed accurately, and respectively added with 200 μL of dimethyl sulfoxide to prepare 10 g/L mother liquor which was diluted into a concentration of 100 ppm with a mixed aqueous solution containing 0.05% of Tween-80 and 5% of honey during the test. […] The raising test tube was placed in a raising box horizontally, and a small amount of ham sausages were added to the raising test tube as food to raise the Solenopsis invicta at a constant temperature of 25° C. After being treated for 24 hours and 72 hours, a number of live Solenopsis invicta and a number of dead Solenopsis invicta were counted, and a mortality (%) was calculated according to a formula that mortality (%)=(number of live Solenopsis invicta in the control group−number of treated live Solenopsis invicta)/number of live Solenopsis invicta in the control group*100%.

[1] = 24 h, read-out: Solenopsis invicta Mortality (%) 100 ppm 24 h, 100 ppm, 24 h
[2] = 72 h, read-out: Solenopsis invicta Mortality (%) 100 ppm 72 h, 100 ppm, 72 h

Compound	mortality at 500 ppm (Plutella xylostella)	mortality at 500 ppm (Spodoptera exigua)	mortality at 500 ppm (Aphis craccivora)	mortality at 100 ppm (Solenopsis invicta; [1])	mortality at 100 ppm (Solenopsis invicta; [2])	Plutella xylostella Mortality (%) 500 ppm (Plutella xylostella)	Spodoptera exigua Mortality (%) 500 ppm (Spodoptera exigua)	Aphis craccivora Mortality (%) 500 ppm (Aphis craccivora)	Solenopsis invicta Mortality (%) 100 ppm 24 h (Solenopsis invicta; 24 h)	Solenopsis invicta Mortality (%) 100 ppm 72 h (Solenopsis invicta; 72 h)
CC(=O)c1nn2c(c1[S+](C)[O-])NC(CC(=O)O)(C(=O)O)c1cc(C(F)(F)F)cc(Cl)c1-2 (stereo not drawn) [Compound C47]	77%	86%	80%	27%	87%	–	–	–	–	–
COC(=O)CC1(C(=O)OC)Nc2c([S+](C)[O-])c(C(C)=O)nn2-c2c(Cl)cc(C(F)(F)F)cc21 (stereo not drawn) [Compound C48]	76%	85%	79%	26%	86%	–	–	–	–	–
CC(=O)c1nn2c(c1[S+](C)[O-])NC(CC(N)=O)(C(N)=O)c1cc(C(F)(F)F)cc(Cl)c1-2 (stereo not drawn) [Compound C49]	87%	89%	90%	20%	81%	–	–	–	–	–
N#Cc1nn2c(c1-c1ccccc1C(F)(F)F)NC(CCl)(C(O)CO)c1cc(C(F)(F)F)cc(Cl)c1-2 (stereo not drawn) [Compound C53]	78%	89%	90%	28%	97%	–	–	–	–	–
Cc1cc(-c2c(C#N)nn3c2NC(C(O)CO)(C(F)(F)F)c2cc(C(F)(F)F)cc(Cl)c2-3)c(C)o1 (stereo not drawn) [Compound C54]	77%	78%	87%	17%	84%	–	–	–	–	–
N#Cc1nn2c(c1[S+]([O-])C(F)(F)F)NC(CCl)(C(O)CO)c1cc(C(F)(F)F)cc(Cl)c1-2 (stereo not drawn) [Compound C55]	88%	80%	91%	19%	83%	–	–	–	–	–
N#Cc1nn2c(c1[S+]([O-])C(F)(F)F)NC(C(O)CO)(C(F)(F)F)c1cc(C(F)(F)F)cc(Cl)c1-2 (stereo not drawn) [Compound C57]	78%	76%	80%	20%	89%	–	–	–	–	–
CC[S+]([O-])c1c(C#N)nn2c1NC(/C=C/C(=O)OC)(CC#N)c1cc(C(F)(F)F)cc(Cl)c1-2 (stereo not drawn) [Compound C59]	100%	90%	100%	29%	100%	–	–	–	–	–
COC(=O)/C=C/C1(CC#N)Nc2c([S+](C)[O-])c(C(C)=O)nn2-c2c(Cl)cc(C(F)(F)F)cc21 (stereo not drawn) [Compound C60]	90%	92%	100%	25%	92%	–	–	–	–	–
CCc1nn2c(c1Br)NC(/C=C\C(=O)OC)(/C=C/C(=O)OC)c1cc(C(F)(F)F)cc(Cl)c1-2 (stereo not drawn) [Compound C63]	98%	90%	96%	29%	98%	–	–	–	–	–
COC(=O)CC1(C(=O)OC)Nc2c([S+]([O-])C(F)(F)F)c(C#N)nn2-c2ncc(C(F)(F)F)cc21 (stereo not drawn) [a-1]	–	–	–	–	–	100%	100%	100%	20%	100%
COC(=O)C1(CC#N)Nc2c([S+]([O-])C(F)(F)F)c(C#N)nn2-c2ncc(C(F)(F)F)cc21 (stereo not drawn) [a-2]	–	–	–	–	–	97%	97%	100%	19%	98%
CCOC(=O)CC1(C(=O)OCC)Nc2c([S+]([O-])C(F)(F)F)c(C#N)nn2-c2ncc(C(F)(F)F)cc21 (stereo not drawn) [a-22]	–	–	–	–	–	100%	100%	100%	30%	100%
CC(=O)CC1(C(=O)C(F)(F)F)Nc2c([S+]([O-])C(F)(F)F)c(C#N)nn2-c2ncc(C(F)(F)F)cc21 (stereo not drawn) [a-26]	–	–	–	–	–	100%	100%	100%	34%	100%
N#Cc1nn2c(c1[S+]([O-])C(F)(F)F)NC(Cc1ccccc1)(C(=O)C(F)(F)F)c1cc(C(F)(F)F)cnc1-2 (stereo not drawn) [a-27]	–	–	–	–	–	100%	100%	100%	25%	100%
COC(=O)CC1(C(=O)C(F)(F)F)Nc2c([S+]([O-])C(F)(F)F)c(C#N)nn2-c2ncc(C(F)(F)F)cc21 (stereo not drawn) [a-28]	–	–	–	–	–	100%	95%	100%	23%	99%
N#Cc1nn2c(c1[S+]([O-])C(F)(F)F)NC(CBr)(C(=O)C(F)(F)F)c1cc(C(F)(F)F)cnc1-2 (stereo not drawn) [a-29]	–	–	–	–	–	100%	91%	100%	14%	96%
N#CCC1(C(=O)C(F)(F)F)Nc2c([S+]([O-])C(F)(F)F)c(C#N)nn2-c2ncc(C(F)(F)F)cc21 (stereo not drawn) [a-30]	–	–	–	–	–	96%	90%	100%	20%	97%
CC(=O)C1(CC(F)(F)F)Nc2c([S+]([O-])C(F)(F)F)c(C#N)nn2-c2ncc(C(F)(F)F)cc21 (stereo not drawn) [a-36]	–	–	–	–	–	100%	96%	100%	14%	91%
CC(=O)C1(CC(=O)C(F)(F)F)Nc2c([S+]([O-])C(F)(F)F)c(C#N)nn2-c2ncc(C(F)(F)F)cc21 (stereo not drawn) [a-37]	–	–	–	–	–	100%	96%	100%	15%	99%
N#Cc1nn2c(c1[S+]([O-])C(F)(F)F)NC(Cl)(Cl)c1cc(C(F)(F)F)cnc1-2 (stereo not drawn) [a-44, 5,5-dichloro-7-trifluoromethyl-3-trifluoromethylsulfinyl-4,5-dihydropyrazole[1,5-α]quinazoline[3,2-e]pyridine-2-cyano]	–	–	–	–	–	100%	95%	100%	15%	95%
